Reference: US5541215A, “Heterocycle-substituted benzenemethanamine derivatives” (Janssen Pharmaceutica N.V., priority 1991, dated 1996)
≈ marks a conversion by molar mass, not a printed value.

Assays:
HIV-1 = test: in-vitro anti-HIV assay: inhibition of HIV-induced cytopathic effect in MT-4 cells (MTT); assay type: cell-based; conditions: for SI (selectivity index, ratio of CD50 to ED50): CD50/ED50, MT-4 cells; for EC50: Human immunodeficiency virus 1, MT4, read-out: ED50 (50% effective dose)
Procedure: (§1) A rapid, sensitive and automated assay procedure was used for the in-vitro evaluation of anti-HIV agents. An […] T4-cell line, MT-4, which was previously shown Koyanagi et al., Int. J. Cancer, , 36, 445-451, 1985) to be highly susceptible to and permissive for HIV infection, served as the target cell line. Inhibition of the HIV-induced cytopathic effect was used as the end point. The viability of both HIV- and mock-infected cells was assessed spectrophotometrically via the in-situ reduction of 3-(4,5-dimethylthiazol-2-yl)-2,5-diphenyltetrazolium bromide (MTT). The 50% cytotoxic dose (CD50 in μg/ml) was defined as the concentration of compound that reduced the absorbance of the mock-infectedcontrol sample by 50%. The percent protection achieved by the compound in HIV-infected cells was calculated by the following formula: [formula] whereby (ODT)HIV is the optical density measured with a given concentration of the test compound in HIV-infected cells; (ODC)HIV is the optical density measured for the control untreated HIV-infected cells; (ODC)MOCK is the optical density means for the control untreated mock-infected cells; all optical density values were determined at 540 nm. The dose achieving 50% protection according to the above formula was defined as the 50% effective dose […]). The ratio of CD50 to ED50 was defined as the selectivity index (SI).

in vitro = assay type: cell-based; conditions: human, mt-4 cells
Procedure: as §1

Structure (SMILES) | SI (selectivity index, ratio of CD50 to ED50) (HIV-1) | EC50 (HIV-1) | CC50 (in vitro)
NC(=O)C(Nc1ncccc1[N+](=O)[O-])c1c(Cl)cccc1Cl (racemic) [compound 1, (±)-2,6-dichloro-α-[(3-nitro-2-pyridinyl)amino]benzeneacetamide] | 1299 | 0.03 µg/mL (≈ 0.0879 µM) | 35.8 µg/mL (≈ 105 µM)
NC(=O)C(Nc1ccc[nH]c1=O)c1c(Cl)cccc1Cl (racemic) [compound 8, (±)-2,6-dichloro-α-[(1,2-dihydro-2-oxo-3-pyridinyl)amino]benzeneacetamide] | 1181 | 0.18 µg/mL (≈ 0.577 µM) | 217 µg/mL (≈ 696 µM)
CC(=O)c1cccnc1NC(C)c1c(Cl)cccc1Cl (racemic) [compound 11, (±)-1-[2-[[1-(2,6-dichlorophenyl)ethyl]amino]-3-pyridinyl]ethanone] | 463 | 0.068 µg/mL (≈ 0.22 µM) | 31.4 µg/mL (≈ 102 µM)
N#Cc1cccnc1NC(C(N)=O)c1c(Cl)cccc1Cl (stereo not drawn) [compound 2] | 243 | 0.1 µg/mL (≈ 0.311 µM) | 25.3 µg/mL (≈ 78.8 µM)
CCn1nc(C)c([N+](=O)[O-])c1NC(C(N)=O)c1c(Cl)cccc1Cl (stereo not drawn) [compound 3] | 61 | 2 µg/mL (≈ 5.37 µM) | 122 µg/mL (≈ 327 µM)
CC(=O)c1nccnc1NC(C(N)=O)c1c(Cl)cccc1Cl (stereo not drawn) [compound 7] | 41.5 | 3.8 µg/mL (≈ 11.2 µM) | 157 µg/mL (≈ 462 µM)
CC(=O)c1nccnc1NC(C)c1c(Cl)cccc1Cl (stereo not drawn) [compound 12] | 289 | 0.013 µg/mL (≈ 0.0419 µM) | 3.82 µg/mL (≈ 12.3 µM)
CC(Nc1ncccc1[N+](=O)[O-])c1c(Cl)cccc1Cl (stereo not drawn) [compound 13] | 33 | 0.0073 µg/mL (≈ 0.0234 µM) | 0.24 µg/mL (≈ 0.769 µM)
